Source: PMC3111191, “Molecular Evolution of Multiple Arylalkylamine N-Acetyltransferase (AANAT) in Fish” (Marine Drugs, 2011)

Tests used:
AANAT1a = biological target: T1, AANAT1a (Sparus aurata, UniProt Q68SL7); assay: radiochemical assay, inhibition of tryptamine acetylation; type: biochemical; details: read-out: % inhibition at 5 mM
T1 construct: gene AANAT1

AANAT2 = AANAT2 (Sparus aurata, UniProt Q68SL6); assay: as above; type: biochemical; details: read-out: % inhibition at 50 mM
AANAT2, sequence (Q68SL6 1-205): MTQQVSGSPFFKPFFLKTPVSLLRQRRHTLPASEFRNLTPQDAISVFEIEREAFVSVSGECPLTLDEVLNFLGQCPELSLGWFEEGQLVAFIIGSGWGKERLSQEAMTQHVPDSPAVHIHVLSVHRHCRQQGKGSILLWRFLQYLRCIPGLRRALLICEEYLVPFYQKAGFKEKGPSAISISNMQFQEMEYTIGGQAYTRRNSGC

T1 sequence (Q68SL7 1-202): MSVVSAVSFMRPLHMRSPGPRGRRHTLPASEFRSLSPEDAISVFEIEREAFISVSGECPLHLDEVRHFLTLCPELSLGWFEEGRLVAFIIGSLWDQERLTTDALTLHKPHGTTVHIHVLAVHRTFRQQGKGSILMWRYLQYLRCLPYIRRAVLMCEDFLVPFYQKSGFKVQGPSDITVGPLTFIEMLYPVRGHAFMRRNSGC

NCCc1ccc(O)c(O)c1 [dopamine]
inhibition at 5000 µM (AANAT1a): ~60%
inhibition at 50000 µM (AANAT2): ~60%
